In patent US20220033448A1, “METHODS FOR AGGREGATION OF PROTEINS” (priority 2011, published 2022):
Where two headings read alike, the source gives them in different places. No end group written: not given here.

What was measured:
[1] = Preliminary in vivo toxicity in rats; conditions: 1.5 mg/kg and 3 mg/kg, single injection into a tail vein, observed over several days
Procedure: In order to assess the toxicity of the antibacterial peptide interferors in vivo, eight germ-free fisher male and female rats, weighing approximately ±350 grams were injected with peptide interferor C30 in buffer A: histidine-acetate(pH 6.5) and buffer B phosphate buffer (pH 6.5). Two rats were injected with a concentration of 1.5 mg/kg and two with a concentration of 3 mg/kg. These were single non repeatable injections into a tail vein.

S. epidermidis = conditions: planktonic, 18 hours
Procedure: Bacteria were grown in a shaking incubator at 37° C. and 160rpm in 50 ml BHI , using individual colonies retrieved from a fresh overnight TSA-sheep blood plate. The cultures were grown to a density of approximately 1×10^8cells/ml and then diluted to 5×10^5 cells/ml in CAMHB (Mc Farland 0.5). Each well contained 100p.I (50p.I of peptide containing MHB plus 50 μl inoculum). The final cell density was 1×10^5 to 5×10^5/ml. After addition of the cell suspension, plates were incubated at 37° C. for 18 to 24 hours. The optical density at 590 nm (OD590) of each well was measured after 5 seconds of shaking the plate using Perkin Elmer spectrophotometer (1420 Multilabel Counter Vicotr 3). […] Each well, where no growth was observed, was also plated on TSA-sheep blood agar plates, incubated at 37° C. overnight and visually inspected.
A microbroth dilution method was used with twofold serial dilutions in CAMHB (according to EMEA guidelines) was used for screening of peptide activity, with concentrations ranging from 0.3 μg/mIto 200 μg/ml.

[2] = test system: S. epidermidis strain ATCC 12228 and S. aureus ATCC; assay type: cell-based, Staphylococcus
Procedure: Time-kill curves were obtained to study the kinetics of bactericidal activity. Compounds C30, Hit50 and C29 (for sequences see above) were tested against S. epidermidis strain ATCC 12228 and S. aureus ATCC at the compound's MIC and two times MIC value. It was shown that compound C30 decreased the viable counts by 100% within 5 min, while Hit50 reduced the viable counts by ^˜3 log units after the same incubation period, both at a concentration that equaled its MIC value (see FIG. 11A and FIG. 11B). […] For example the time needed to decrease the number of CFU/ml one-fold for C29 was 60 minutes (at the minimum inhibitory concentration), and only 10 minutes for 2×MIC.

Candida albicans SC5314 = assay: C. albicans adhesion on polyurethane catheters (CFU counting); assay type: cell-based; conditions: 50 μM; adhesion 90 min at 37° C.; control 3.06 ±0.39
Procedure: In vitro C. albicans biofilm was studied on three different types of biomaterials, namely flat bottom 96-well polystyrene plate (Greiner Bio-One, Germany), silicone (CS Hyde, USA) and polyurethane triple lumen intravenous catheters (2.4mm diameter) (Arrow International Reading, USA). Prior the biofilm set up, silicone was cut into small square pieces (1 cm×1 cm) and polyurethane into 1 cm pieces. Silicone or polyurethane devices were incubated in 99% FBS (F7524, Sigma) overnight at 37° C. Cells were washed and resuspended in 1 x phosphate buffered saline (PBS), pH 7.4. Candida suspension of 1×10^7 cells/ml or 5.10^4 cells/ml was prepared in RPMI1640-MOPS medium, Ssuccinate, pH 6.5 or in YNB medium, 4% D-glucose. In total, 1 ml of the cell suspension was added to the silicone discs or polyurethane catheters placed in 24 well plate and 100 μl of cell suspension was inoculated into 96-well polystyrene plate. The attachment of the cells to a substrate was achieved by incubation at 37° C., for 90 min under static conditions (period of adhesion). […] After that, the biofilms were washed twice with 1×PBS and quantified.
The amount of fungal biofilm biomass formed inside the catheter lumen of in vitro and in vivo explanted catheters was determined by colony forming units (CFU). […] CFUs were counted after two days at 37° C.

In the case of RILLGLIRRGSRILLGLIRR [C30], the “mortality and side effects” value [1] is reported as “no mortality nor any other side effects were apparently visible”, the MIC (S. epidermidis; S101) is reported as “S101: 1.5 μg/ml” and the MIC (S. epidermidis; S103) is reported as “S103: 1.5 μg/ml”. The MIC (S. epidermidis; S104) was “S104: 1.5 μg/ml”, the MIC (S. epidermidis; S109) was “S109: 3 μg/ml” and the MIC (S. epidermidis; S. epidermidis ATCC 13228) was “S. epidermidis ATCC 13228: 1.5 μg/ml”. The “time needed to kill Staphylococci” value [2] was 5 to 10 min and the “decrease of viable counts” value ([2]; Staphylococcus epidermidis and Staphylococcus aureus, 5 min, 1 ×MIC) was 100%.

For RKLLFNLGSRNGIVIVATTR [F9], the “attachment to polyurethane devices” value (Candida albicans SC5314) was 2.18 ±0.12 logio CFU/catheter fragment.
